# Data: US4670038A, “Cyclotriphosphazatriene-derivatives as soil urease activity inhibitors” (Tennessee Valley Authority, priority 1986, dated 1987)
# System: soil urease
# Assay: Urea hydrolysis in bands of urea plus inhibitor in Hastings silt loam soil (banded system)
# Type: biochemical
# Conditions: Hastings silt loam, banded system, 3-day and 6-day tests
row,Structure (SMILES),"Soil urease inhibition in words, banded soil tests"
1,"CN(C)P1(N(C)C)=NP(N)(N)=NP(N(C)C)(N(C)C)=N1 [P3 N3 (NH2)2 [N(CH3)2]4, 2,2,4,4,-tetra(dimethylamino)-6,6-diaminocyclotriphosphazatriene]",do not exhibit urease inhibition
2,"CNP1(NC)=NP(NC)(NC)=NP(NC)(NC)=N1 [P3 N3 (NHCH3)6, 2,2,4,4,6,6-hexa(monomethylamino)cyclotriphosphazatriene]",do not exhibit urease inhibition
3,"CN(C)P1(N(C)C)=NP(N(C)C)(N(C)C)=NP(N(C)C)(N(C)C)=N1 [P3 N3 [N(CH3)2]6, 2,2,4,4,6,6-hexa(dimethylamino)cyclotriphosphazatriene]",do not exhibit urease inhibition

# Same assay, conditions: Table II; equimolar basis, 0.25 millimoles inhibitor/band, 410 mg urea/band; three replications; Hastings silt loam, 25° C.; 3 days
row,Structure (SMILES),"Unhydrolyzed Urea, % 3 Days"
1,"CC(=O)NO [CH3 C(NOH)(OH), Acetohydroxamic acid, reference compound]",26.2%
2,"NC(=O)NO [CO(NH2)(NHOH), Hydroxyurea, reference compound]",20.3%

# Same assay, conditions: Table II; equimolar basis, 0.25 millimoles inhibitor/band, 410 mg urea/band; three replications; Hastings silt loam, 25° C.; 6 days
row,Structure (SMILES),"Unhydrolyzed Urea, % 6 Days"
1,"CC(=O)NO [CH3 C(NOH)(OH), Acetohydroxamic acid, reference compound]",6.7%
2,"NC(=O)NO [CO(NH2)(NHOH), Hydroxyurea, reference compound]",0.2%

# Same assay, conditions: Table IV; inhibitor 10 percent of urea (wt/wt), 41 mg/band; two replications; Hastings silt loam; 3 days
row,Structure (SMILES),"Unhydrolyzed Urea, % 3 Days"
1,"CNP1(NC)=NP(N)(N)=NP(NC)(NC)=N1 [P3 N3 (NH2)2 (NHCH3)4, 2,2,4,4,-tetra(monomethylamino)-6,6-diaminocyclotriphosphazatriene]",0.5%
2,"CNP1(NC)=NP(NC)(NC)=NP(NC)(NC)=N1 [P3 N3 (NHCH3)6, 2,2,4,4,6,6-hexa(monomethylamino)cyclotriphosphazatriene]",0.0%
3,"CN(C)P1(N(C)C)=NP(N(C)C)(N(C)C)=NP(N(C)C)(N(C)C)=N1 [P3 N3 [N(CH3)2]6, 2,2,4,4,6,6-hexa(dimethylamino)cyclotriphosphazatriene]",0.0%

# Same assay, conditions: Table IV; inhibitor 10 percent of urea (wt/wt), 41 mg/band; two replications; Hastings silt loam; 6 days
row,Structure (SMILES),"Unhydrolyzed Urea, % 6 Days"
1,"CNP1(NC)=NP(N)(N)=NP(NC)(NC)=N1 [P3 N3 (NH2)2 (NHCH3)4, 2,2,4,4,-tetra(monomethylamino)-6,6-diaminocyclotriphosphazatriene]",0.0%
2,"CNP1(NC)=NP(NC)(NC)=NP(NC)(NC)=N1 [P3 N3 (NHCH3)6, 2,2,4,4,6,6-hexa(monomethylamino)cyclotriphosphazatriene]",0.0%
3,"CN(C)P1(N(C)C)=NP(N(C)C)(N(C)C)=NP(N(C)C)(N(C)C)=N1 [P3 N3 [N(CH3)2]6, 2,2,4,4,6,6-hexa(dimethylamino)cyclotriphosphazatriene]",0.0%
